Assay [1] addresses T1, human mdm2 (hdm2) (Homo sapiens, UniProt Q00987).
T1 construct: ARN8 soluble cell extracts were prepared for the cellular thermal shift assay (CETSA); endogenous in cells; host or cells: ARN8 human melanoma cells (soluble extract)
The assay is described as follows: hdm2 binding (CETSA in ARN8 extracts; ELISA with IP3 peptide). Conditions: CETSA at 100 μM. As to the method: Levels of gapdh were used to monitor protein loading. e ARN8 or HNDF cells were treated with the indicated compound concentrations for 72 h and subjected to MTT assays. […] Incorporation of ^35S in the p53 immunoprecipitate was determined by autoradiography. The experiment is shown in duplicate
corresponds to residues 17−26 of wild-type p53) was determined by ELISA (See
supplementary information9). The percentage hdm2/hdmx bound to IP3 relative to the vehicle
upon which cycloheximide (CHX) (10 µg mL-1) was added for the indicated periods of time. […]
(In general: In an ELISA, binding on a coated surface is turned into a signal by an enzyme label.)

The test system of assay [2] is DNA damage response markers in ARN8 cells. The assay is described as follows: Western blotting of DNA damage response markers. The assay is classed as cell-based, human. As to the method: Protein extracts were prepared in 1× LDS sample buffer (Invitrogen) with 100 mM DTT and separated and transferred using the Invitrogen western blotting system except in Supplementary Fig. 1c where the BioRad western blotting system was used. HRP-conjugated secondary antibodies were obtained from Dako (#P016102 and #P0211702) or Santa Cruz (#SC-2020). Immunofluorescence was performed by fixing cells in 4% paraformaldehyde freshly made in PBS for 10 min at 37 °C. Following fixation, cells were permeabilized in 0.15% Triton X-100 for 1–2 min at 37 °C followed by staining with the indicated antibodies. Images were taken using Olympus IX-71 microscope controlled by DeltaVision SoftWoRx. […]
Protein levels were analyzed by western blotting and relative p53 levels quantified using […]
for 1 h prior to the addition of hydroxyurea (HU) or vehicle control for a further 3 h and analyzed by western blotting. gapdh was used as loading control. d) ARN8 cells were treated […]
(Sigma, #N9162) for a further 2 h. Samples were lysed in 2 × LDS buffer (Invitrogen) and levels of P-ATM and ATM determined. α-tubulin was detected for loading control. e) ARN8 […]
of NCS for a further 2 h. Samples were lysed as in d) and levels of P-Ser15 p53 and γ-H2AX were determined. gapdh was used as loading control. f−g) ARN8 cells were treated with […]
(Ser 345) and chk1 were detected. […]
(In general: In western blotting, separated proteins are transferred to a membrane and probed.)

The subject of assay [3] is P-chk1 (Ser 345)/chk1 in ARN8 cells. In words: P-chk1/chk1 ratio by western blotting, ARN8. The class given is cell-based, human. Conditions: first blot (taken as ARN8). The source says: (Ser 345) and chk1 were detected. Ponceau S staining was used to monitor loading. […]
The subject of assay [4] is cyclin-dependent kinases (CDKs). In words: 33PanQinase radiometric kinase assay, panel of 16 CDKs (Supplementary Table 1). The class given is biochemical. The source says: Supplementary Table 1. In vitro inhibition (% remaining activity) of cyclin-dependent
ProQinase GmbH (Freiburg, Germany) using a radiometric protein kinase assay
(33PanQinase® Activity Assay).
(§1) (1 picture or pasted object on this page, not shown here)

Assay [5] concerns protein kinases. In words: Radioactive filter-binding assays, panel of 140 kinases (Supplementary Table 2). The class given is biochemical. As to the method: Supplementary Table 2. In vitro inhibition (% remaining activity) of protein
free assays. Screening was performed by the International Centre for Kinase Profiling
(Dundee, UK) using radioactive ( P-ATP) filter-binding assays.
as §1

In assay [6] the test system is total RNA in ARN8 cells. The assay is described as follows: Total RNA quantification. The class given is cell-based, human. As to the method: Cells were fixed in 4 % paraformaldehyde made in PBS followed by 10 min at 37 °C, permeabilization in 0.15 % Triton X-100 for 1-2 min at 37 °C, and staining with antibodies against nucleolin and p53. Images were taken using Olympus IX-71 microscope controlled by Delta Vision SoftWorx. Image stacks were deconvolved, quick-projected and saved as tiff images to be processed using Adobe PhotoShop. Antibodies to specific antigens are listed in Supplementary Table 8. b) ARN8 […]
was extracted and quantified. […]

Assay [7] has as its system HNDF cells. In words: PI flow cytometry, sub-G1 cells, HNDF. The class given is cell-based, human. As for the experimental part:
(§2) Cell cycle distribution analysis was performed on a Becton Dickinson FACScan flow cytometer or FACSCalibur (BD Biosciences) following staining with propidium iodide (PI) or dual labeling with BrdU and PI[36]. These assays were analyzed using CellQuest Pro (BD Biosciences).
On the technique in general: A flow cytometer gives signals particle by particle.

For assay [8], the system named is U2OS cells. The assay is described as follows: PI flow cytometry, sub-G1 cells, U2OS. The assay is classed as cell-based. As to the method: as §2
The test system of assay [9] is MV411 cells. In words: PI flow cytometry, sub-G1 cells, MV411. The assay is classed as cell-based. As for the experimental part: as §2
In assay [10] the test system is ARN8 xenograft. In words: ARN8 subcutaneous xenograft. The assay is classed as in vivo. Conditions: ARN8 xenograft. In short, it runs like this: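 NSG mice (n = 8 per group) received 2 × 10^6 ARN8 cells subcutaneously in the flank in PBS:Matrigel (3:1). Treatment with (R)-HZ05 combined with nutlin-3a, at a previously determined maximum tolerated dose, started at ~50 mm^3 tumors. Volumes were caliper-measured every second day as π(length × width × height)/6.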

The mark [11] stands for this setting: HZ05 1 μM 72 h + 48 h, 2 μM nutlin-3a last 48 h.
Setting [12] is: HZ05 1 μM 72 h + 48 h, DMSO last 48 h.

T1 sequence (Q00987 whole entry): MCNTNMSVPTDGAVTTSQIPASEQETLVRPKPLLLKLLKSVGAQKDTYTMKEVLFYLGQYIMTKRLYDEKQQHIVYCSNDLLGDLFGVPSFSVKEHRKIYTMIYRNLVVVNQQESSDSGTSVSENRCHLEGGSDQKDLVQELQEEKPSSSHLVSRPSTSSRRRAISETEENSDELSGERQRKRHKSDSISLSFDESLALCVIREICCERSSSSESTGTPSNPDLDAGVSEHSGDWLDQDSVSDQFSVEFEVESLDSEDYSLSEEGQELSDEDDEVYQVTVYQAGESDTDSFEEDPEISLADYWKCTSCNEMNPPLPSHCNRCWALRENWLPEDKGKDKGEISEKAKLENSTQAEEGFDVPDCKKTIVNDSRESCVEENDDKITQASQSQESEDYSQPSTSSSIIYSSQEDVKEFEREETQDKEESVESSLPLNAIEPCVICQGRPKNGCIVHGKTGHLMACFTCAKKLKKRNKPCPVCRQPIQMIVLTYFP

For `O=C(NC1CCCc2c1cnn2-c1ccccc1F)c1ccccn1` (stereo not shown) [HZ00], the “binding to human mdm2 (hdm2)” value in assay [1] is given as “does not bind”. The “induction of DNA damage response markers” value in [2] is “did not observe any induction”. The P-chk1/chk1 in assay [3] (HZ00 10 µM, 24 h) was 1.02; in assay [3] (HZ00 10 µM, 48 h), 1.28; in [3] (HZ00 10 µM, 72 h), 0.78; in assay [3] (HZ00 20 µM, 24 h) it was 0.94; in assay [3] (HZ00 20 µM, 48 h), 1.41; in assay [3] (HZ00 20 µM, 72 h), 0.87. In addition, in assay [4], the “inhibition of cyclin-dependent kinases” value is “did not detect inhibition”. Also, in assay [5], the “inhibition of protein kinases” value is recorded as “did not detect inhibition”. In [6], the “total RNA levels” value is recorded as “drop in total RNA levels”.
For the molecule `O=C(NC1CCCc2c1cnn2-c1ccccc1F)c1onc2c1CCCC2` (stereo not shown) [HZ05], the sub-G1 cells in assay [7] (setting [11]) was found to be 1.9%; in [7] (setting [12]) it was 2.2%; in assay [7] (HZ05 1 μM, 72 h treatment) it was 1.9%; in assay [7] (HZ05 2.5 μM, 72 h treatment), 2.9%; in assay [8] (setting [11]), 38.2%; in assay [8] (setting [12]), 25.7%. The sub-G1 cells in assay [8] (HZ05 1 μM, 72 h treatment) worked out at 3.7%; in assay [8] (HZ05 2.5 μM, 72 h treatment), 4.8%; in assay [9] (setting [11]), 65.4%; in assay [9] (setting [12]), 30.2%; in [9] (HZ05 1 μM, 72 h treatment), 5.5%; in [9] (HZ05 2.5 μM, 72 h treatment), 6.2%. In addition, in [10] ((R)-HZ05 75 mg/kg q.d. s.c. + nutlin-3a 50 mg/kg b.i.d. orally, 10 days), the “xenograft tumor growth, combination with nutlin-3a” value is “statistically significant reduction in xenograft growth”. For the same molecule, the “xenograft tumor growth, single agent” value in assay [10] ((R)-HZ05 75 mg/kg q.d. s.c. or nutlin-3a 50 mg/kg b.i.d. orally) was “ineffective”.

The record behind these values is paper PMC5856786, “A DHODH inhibitor increases p53 synthesis and enhances tumor cell killing by p53 degradation blockage” (Nature Communications, 2018).
